Experiments:
[1] = molecular target: T1, 3-oxo-5-alpha-steroid 4-dehydrogenase 2 (Homo sapiens, UniProt P31213); assay: Inhibitory activity against type-2 human steroid 5-alpha-reductase at a concentration of 1 uM: No inhibition
T1 sequence (P31213 whole entry): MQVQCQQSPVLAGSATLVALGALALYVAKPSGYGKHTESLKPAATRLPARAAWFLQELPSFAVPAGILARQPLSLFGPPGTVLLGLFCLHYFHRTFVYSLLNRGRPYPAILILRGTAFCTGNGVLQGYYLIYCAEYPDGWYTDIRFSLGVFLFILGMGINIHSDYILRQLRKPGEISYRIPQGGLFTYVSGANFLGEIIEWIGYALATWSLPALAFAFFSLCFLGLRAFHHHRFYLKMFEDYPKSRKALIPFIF

[2] = molecular target: T2, 3-oxo-5-alpha-steroid 4-dehydrogenase 1 (Homo sapiens) (UniProt P18405); assay: Inhibitory activity against type-1 human steroid 5-alpha-reductase at a concentration of 2.5 uM
T2 sequence (whole entry): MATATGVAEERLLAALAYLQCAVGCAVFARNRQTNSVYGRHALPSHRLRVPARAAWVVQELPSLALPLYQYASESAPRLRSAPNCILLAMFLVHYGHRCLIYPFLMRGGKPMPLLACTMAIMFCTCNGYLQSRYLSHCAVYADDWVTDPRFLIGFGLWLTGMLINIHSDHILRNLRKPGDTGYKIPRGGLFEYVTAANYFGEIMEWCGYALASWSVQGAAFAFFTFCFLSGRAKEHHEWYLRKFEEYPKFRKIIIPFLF

[3] = molecular target: T3, 3-oxo-5-alpha-steroid 4-dehydrogenase 1 (Homo sapiens, UniProt P18405); assay: Inhibition of type-1 human steroid 5-alpha-reductase; details: read-out: Ki app
T3 sequence (P18405 whole entry): T2 sequence (whole entry)

[4] = molecular target: T1, 3-oxo-5-alpha-steroid 4-dehydrogenase 2; assay: Inhibition of type-2 human steroid 5-alpha-reductase.; details: read-out: Ki app
[5] = molecular target: T4, 3-oxo-5-alpha-steroid 4-dehydrogenase 2 (Homo sapiens) (UniProt P31213); details: 20 uM
T4 sequence (whole entry): T1 sequence (P31213 whole entry)
Description: Inhibitory activity against type-2 human steroid 5-alpha-reductase at a concentration of 20 uM

[6] = molecular target: T4, 3-oxo-5-alpha-steroid 4-dehydrogenase 2 (Homo sapiens); assay: Inhibitory activity against type-2 human steroid 5-alpha-reductase at a concentration of 2.5 uM
[7] = molecular target: T4, 3-oxo-5-alpha-steroid 4-dehydrogenase 2 (Homo sapiens); details: 10 uM
Description: Inhibitory activity against type-2 human steroid 5-alpha-reductase at a concentration of 10 uM

[8] = molecular target: T3, 3-oxo-5-alpha-steroid 4-dehydrogenase 1; assay: Inhibitory activity against type-1 human steroid 5-alpha-reductase.
[9] = molecular target: T1, 3-oxo-5-alpha-steroid 4-dehydrogenase 2; assay: Inhibitory activity against type-2 human steroid 5-alpha-reductase.
[10] = molecular target: T1, 3-oxo-5-alpha-steroid 4-dehydrogenase 2; assay: (§1) Inhibitory activity against type-2 human steroid 5-alpha-reductase at a concentration of 1 uM; No inhibition
[11] = molecular target: T1, 3-oxo-5-alpha-steroid 4-dehydrogenase 2; assay: as §1; remark: listed apart in the source

Row | Structure (SMILES) | Ki [3] [nM] | Ki [4] [nM] | also measured
1 | O=C(O)c1ccc2c(c1)CCc1cc(Br)ccc1-2 | 26 | 10000 | –
2 | CC(C)N(C(=O)[C@H]1CCC2C3CC[C@H]4C=C([N+](=O)[O-])CC[C@]4(C)C3CC[C@@]21C)C(C)C (some centres undefined) | 4200 | 30 | –
3 | CC1=C2NCc3cc(Cl)ccc3[C@@]2(C)CCC1=O | 920 | 20000 | inhibition [5]: 49%
4 | CCN(CC)C(=O)[C@H]1CC[C@H]2[C@@H]3CC[C@H]4N(C)C(=O)CC[C@]4(C)[C@H]3CC[C@]12C | 3 | 2 | –
5 | CC(C)CC(=O)[C@H]1CCC2C3CNC4=CC(=O)CC[C@]4(C)C3CC[C@@]21C (some centres undefined) | – | 0.08 | –
6 | O=C(O)c1ccc2c(c1)Cc1ccccc1-2 | > 2500 | 10000 | inhibition [2]: 30%
7 | O=C(O)c1ccc2c(c1)CCc1cc(Cl)ccc1-2 | 320 | 2500 | inhibition [6]: 50%
8 | C[C@]12CCC([PH](=O)O)=CC1=CCc1cc(Cl)ccc12 | 1900 | 1600 | –
9 | CC(C)(C)NC(=O)[C@H]1CC[C@H]2[C@@H]3CC[C@H]4NC(=O)C=C[C@]4(C)[C@H]3CC[C@]12C [FINASTERIDE] | – | – | IC50 [8]: 500 nM; IC50 [9]: 4.2 nM
10 | CN1C(=O)CC[C@]2(C)c3ccc(Cl)cc3CC[C@@H]12 | – | – | Ki app [10]: Not Active; Ki app [11]: Not Active
11 | CC(C)(C)NC(=O)[C@H]1CC[C@H]2[C@@H]3CCc4cc(C(=O)O)ccc4[C@H]3CC[C@]12C | 1600 | 0.4 | –

Further lines, with some results ahead:

Row | Ki [3] [nM] | Ki [4] [nM] | Structure (SMILES) | also measured
12 | > 2500 | – | COc1cccc2c1CC[C@H]1C=C([N+](=O)[O-])CC[C@]21C | Ki app [1]: Not Active; inhibition [2]: 10%
13 | 3200 | 1.3 | CC(C)(C)NC(=O)[C@H]1CCC2C3CC=C4C=C([PH](=O)O)CC[C@]4(C)C3CC[C@@]21C (some centres undefined) | –
14 | 315 | 10000 | O=C(O)c1ccc2c(c1)CCc1ccccc1-2 | inhibition [7]: 20%
15 | 1200 | 260 | C[C@]12CCC(C(=O)O)=CC1=CCc1cc(Cl)ccc12 | –
